Measured values: US9560989B2, “Method for determining the metabolic capacity of at least one enzyme” (HUMEDICS GMBH, priority 2011, dated 2017)

Columns and labels:
CYP450 1A2 [1] = target: T1, CYP450 1A2 (Homo sapiens, UniProt P05177); assay: metabolic power of the liver determined by methacetin metabolism at different dosages; type: in vivo; design: metabolized to ^13CO2 and paracetamol in the liver cells by the enzyme CYP450 1A2; from tissue; host or cells: liver of the living individual (in vivo); settings: FIG. 2
T1 sequence (P05177 1-516): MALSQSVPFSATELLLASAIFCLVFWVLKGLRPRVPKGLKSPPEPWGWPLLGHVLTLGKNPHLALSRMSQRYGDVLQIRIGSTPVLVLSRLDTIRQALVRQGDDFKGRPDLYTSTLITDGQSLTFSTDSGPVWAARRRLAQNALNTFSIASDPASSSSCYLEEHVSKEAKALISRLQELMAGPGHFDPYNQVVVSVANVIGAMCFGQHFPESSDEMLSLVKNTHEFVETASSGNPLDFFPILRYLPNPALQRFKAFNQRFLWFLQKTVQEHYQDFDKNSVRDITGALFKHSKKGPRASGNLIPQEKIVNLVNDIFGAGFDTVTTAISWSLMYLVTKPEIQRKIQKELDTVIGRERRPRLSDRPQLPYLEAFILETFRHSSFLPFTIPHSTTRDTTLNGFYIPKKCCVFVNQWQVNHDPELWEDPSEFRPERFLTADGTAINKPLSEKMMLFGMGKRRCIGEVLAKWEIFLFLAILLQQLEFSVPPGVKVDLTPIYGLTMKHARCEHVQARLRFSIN
Protocol: The metabolic power was determined according to the formulae indicated above for different methacetin metabolisms observed after methacetin administration in different dosages. Specifically, 1 mg ^13C-labeled methacetin per kg bodyweight, 2 mg/kg, 4 mg/kg and 8 mg/kg were administered.
This non-linearity is expressed by the function L(n/M), wherein n denotes the number of substrate molecules, i.e. methacetin molecules, and M denotes the bodyweight in kg. This function L(n/M) forms part of the fitting curve represented in FIG. 2 by the interpolation curve between the single measurement points.

CYP450 1A2 [2] = target: T1, CYP450 1A2; settings: in vivo
Protocol: As substrate, ^13C-labeled methacetin at a dose of 2 mg per kilogram bodyweight of the individual was administered to the individual, wherein the release period was shorter than 60 seconds. In the body of the individual the ^13C-labeled methacetin was metabolized in the liver to paracetamol and ^13C-labeled CO2. The latter was detected as product in the air exhaled by the individual.
1 DOB here refers to a change of the ^13CO2-to-^12CO2-ratio by a thousandth above the natural ratio. The obtained measured values, illustrated in FIG. 1, are subsequently fitted with a suitable model function. […] From this model function—with a function equation familiar as such—different parameters can now be derived which specify the function. […]
As methacetin is almost solely metabolized in the liver, with the specified metabolism dynamics it is possible to directly and immediately trace the metabolism of the administered substrate by the enzymes existing in the liver. […] Here, for instance the value of the maximum product concentration in the exhaled air Pmax allows a statement to be made about the number of the healthy liver cells and the liver volume which is thus available for metabolism; whereas the rise in the form of the time constant(s) of the model function, fitted to the measured values, allows statements to be made about the entrance velocity of the substrate into the liver cells. […]

dependence of the measured signals on dosage (CYP450 1A2 [1]; 1 mg per kg body weight): linear dependence | dependence of the measured signals on dosage (CYP450 1A2 [1]; 2 mg/kg): linear dependence | deviation from the linear behaviour (CYP450 1A2 [1]; 4 mg/kg): 10% | deviation from the linear behaviour (CYP450 1A2 [1]; 8 mg/kg): more than 20% | time point of half-maximum methacetine metabolism (t1/2) (CYP450 1A2 [2]): ~1.5 min | time point of maximum methacetine metabolism (tmax) (CYP450 1A2 [2]): ~6.5 min
SMILES: COc1ccc(NC(C)=O)cc1 [13C-labeled methacetin]
